# Experiments:
# liver cancer = settings: animal model of liver cancer; cited from earlier work
# HCC-E = assay: Orthotopic hepatoma model, tumor weight in the liver, HCC-E; type: in vivo, nude mouse; settings: oral everyday, 3 weeks, nude mice
# Description: (§1) Accordingly, an experiment of therapeutic treatment was performed to examine susceptibility to RAR-α agonists. The cultured liver cancer cells were transplanted in an amount of 1×10^6 cells into the outer left lobes of the livers in nude mice (BALB/cA Jcl-nu, Clea Japan, Inc.), TAC-101 as an RAR-α agonist was orally administered everyday as a 0.5% hydroxypropylmethylcellulose suspension (Shin-Etsu Chemical Co., Ltd.), and then the weights of tumors formed in the livers were measured 3 weeks later to obtain mean inhibition rates. […] Further, it was also observed by two-sided Student's t test that these antitumor effects were statistically significant inhibitory action.
# human liver cancer = settings: phase II study; cited from earlier work
# HCC-C = assay: Orthotopic hepatoma model, tumor weight in the liver, HCC-C; type: in vivo, nude mouse; settings: oral everyday, 3 weeks, nude mice
# Description: as §1
# RAR-α = RAR-α transcription activity test (pRARE-SEAP reporter) in hepatocellular carcinoma cells; type: cell-based, human; settings: for RAR response (T/C %): 24 hours, untreated cells = 100
# Description: The test for confirming the RAR-α transcription activity was performed as follows.
# Hepatocellular carcinoma cells of each type transfected with a reporter plasmid containing an RAR-α binding sequence with the SEAP gene in a downstream region (pRARE-SEAP-TA-vector, Clontech) were treated with an RAR-α agonist, and then the SEAP alkaline phosphatase activity in the culture supernatant was measured. The cultured hepatocellular carcinoma cells were transfected with the RARE reporter plasmid mixed in a transfection reagent prepared by using the culture broth and FuGENE6 solution at a ratio of 100:6 and cultured for 24 hours. The culture broth was replaced with the one containing TAC-101 as an RAR-α agonist, and the cells were cultured for further 24 hours. Then, the culture supernatant was collected, and transcription activity was confirmed by using an alkaline phosphatase activity measurement reagent (SEAP Detection Kit, Clontech).
# HCC-E cells = assay: Survival after spleen inoculation (liver metastasis model), HCC-E; type: in vivo, nude mouse; settings: oral every day for 4 weeks, nude mice
# Text: (§2) Further, correlation between the cofactor balance and survival advantage was examined by using cancer cell lines for which survival were evaluatable. When cells of the colorectal cancer cell line CAC, having an AIB1/SP110b ratio of 0.08 so as to be dominant in SP110b, and the aforementioned HCC-E cells are inoculated in the nude mouse spleen, dissemination easily occurs in the liver, resulting in formation of a metastatic condition in the liver. After 1×10^6 of CAC or HCC-E cells were transplanted, and TAC-101 was orally administered every day for 4 weeks, the survival time of each model animal was observed. In the CAC model, in which SP110b was dominant, prolongation of the survival time was only 26%, whereas in the HCC-E model, in which the class of the p160 family molecule was dominant, nearly […] longer survival time prolongation of 81% was confirmed. Further, this effect in the HCC-E model was also statistically significant (P<0.001).
# HCC-D = assay: Orthotopic hepatoma model, tumor weight in the liver, HCC-D; type: in vivo, nude mouse; settings: oral everyday, 3 weeks, nude mice
# Description: as §1
# [1] = tested on: colorectal cancer cell line CAC; assay: Survival after spleen inoculation (liver metastasis model), CAC; type: in vivo, nude mouse; settings: oral every day for 4 weeks, nude mice
# Text: as §2
smiles,measurement,setting,value
"C[Si](C)(C)c1cc(C(=O)Nc2ccc(C(=O)O)cc2)cc([Si](C)(C)C)c1 [TAC-101, 4-[3,5-Bis(trimethylsilyl)benzamido]benzoic acid]",antitumor activity (in words),liver cancer,antitumor activity of TAC-101 was observed
same,"Inhibition (%) of tumor growth (tumor weight, mean inhibition rate)",HCC-E,67%
same,prevention of tumor progression,human liver cancer,43%
same,"Inhibition (%) of tumor growth (tumor weight, mean inhibition rate)",HCC-C,81%
same,RAR response (T/C %),"RAR-α; HCC-A cells, TAC-101 0.3 μM",142%
same,RAR response (T/C %),"RAR-α; HCC-A cells, TAC-101 1 μM",110%
same,RAR response (T/C %),"RAR-α; HCC-A cells, TAC-101 3 μM",143%
same,RAR response (T/C %),"RAR-α; HCC-B cells, TAC-101 0.3 μM",180%
same,RAR response (T/C %),"RAR-α; HCC-B cells, TAC-101 1 μM",188%
same,RAR response (T/C %),"RAR-α; HCC-B cells, TAC-101 3 μM",146%
same,RAR transcription activity induced by TAC-101 (in words),RAR-α; HCC-C cells,high
same,RAR response (T/C %),"RAR-α; HCC-C cells, TAC-101 0.3 μM",342%
same,RAR response (T/C %),"RAR-α; HCC-C cells, TAC-101 1 μM",497%
same,RAR response (T/C %),"RAR-α; HCC-C cells, TAC-101 3 μM",285%
same,RAR transcription activity induced by TAC-101 (in words),RAR-α; HCC-D cells,weak
same,RAR response (T/C %),"RAR-α; HCC-D cells, TAC-101 0.3 μM",161%
same,RAR response (T/C %),"RAR-α; HCC-D cells, TAC-101 1 μM",161%
same,RAR response (T/C %),"RAR-α; HCC-D cells, TAC-101 3 μM",168%
same,RAR transcription activity induced by TAC-101 (in words),RAR-α; HCC-E cells,high
same,RAR response (T/C %),"RAR-α; HCC-E cells, TAC-101 0.3 μM",476%
same,RAR response (T/C %),"RAR-α; HCC-E cells, TAC-101 1 μM",482%
same,RAR response (T/C %),"RAR-α; HCC-E cells, TAC-101 3 μM",259%
same,Increase of life span (%),HCC-E cells,81%
same,"Inhibition (%) of tumor growth (tumor weight, mean inhibition rate)",HCC-D,−3%
same,therapeutic effect (in words),HCC-D,no therapeutic effect was observed
same,Increase of life span (%),[1],26%
